Test results published in article PMC12752627, “Discovery of a Potent and Selective TEAD Degrader with Durable Degradation Activity” (Advanced Science, 2025).

Key:
CRBN = target: T1, CRBN (Homo sapiens, UniProt Q96SW2); assay: Intracellular CRBN binding in NanoLuc-CRBN-overexpressing HEK293T cells; assay type: cell-based; details: read-out: Cellular CRBN Binding IC50 (nM ± SD)
T1 construct: expressed in transfected cells; host or cells: HEK293T
Method: NanoLuc‐CRBN‐overexpressing HEK293T were seeded in 96‐well plates at a density of 2000 per well. The following day, compounds was added to the plate starting from 10 µM for a 3‐fold gradient dilution and incubated for 2 h. […] Finally, the signal was measured using an Envision plate reader (Revvity) and the data were analyzed using the GraphPad Prism 9.5 software.

ES2 xenograft = ES2 xenograft efficacy study; assay type: in vivo, BALB/c nude mice; details: 10 and 30 mg/kg
Method: Animal experiments were conducted by Medsyin (Shanghai) Co., Ltd. The experimental protocol was approved by the IACUC of the company (No.: PZWH‐2025031003) and strictly adhered to the guidelines of the AAALAC. The specific procedures are as follows: 5 × 10^6 MSTO‐211H cells or ES2 cells were suspended in 100 µL of a mixture of PBS and Matrigel and inoculated subcutaneously into the right axilla of 6‐week‐old BALB/c nude mice. Drug administration was initiated on day 7 after cell inoculation (when the average tumor volume was ≈150 mm^3). The experiment was divided into four groups with 6 mice in each group. The specific grouping and administration methods are as follows: control group, KY‐001 group (10 mg kg^−1, p.o.), KG‐FP‐003 (10 mg kg^−1 or 30 mg kg^−1, i.p.). The administration routes included intraperitoneal injection and intragastric administration, once a day for 21 consecutive days. During the experiment, the body weight and tumor volume of the mice were measured twice a week. At the end of the experiment, the mice were sacrificed and tumor tissues were collected.

MSTO-211H xenograft = MSTO-211H xenograft pharmacodynamic study (3 mg/kg i.p.); assay type: in vivo, BALB/c nude mice; details: 3 mg/kg i.p. q.d. 21 days
Method: Animal experiments were conducted by Medsyin (Shanghai) Co., Ltd. The experimental protocol was approved by the IACUC of the company (No.: PZWH20240527‐1) and strictly adhered to the guidelines of AAALAC. The specific procedures are as follows: 5 × 10^6 MSTO‐211H cells were suspended in 100 µL of a mixture of PBS and Matrigel and inoculated subcutaneously into the right axilla of 6‐week‐old BALB/c nude mice. Drug administration was initiated on day 7 after cell inoculation (when the average tumor volume was ≈150 mm^3). The experiment was divided into two groups: one group served as the control group, and the other group received drug administration via intraperitoneal injection at a dose of 3 mg kg^−1 (6 mice in each group), once a day for 21 consecutive days. During the experiment, the body weight and tumor volume of the mice were measured twice a week. At the end of the experiment, the mice were sacrificed and tumor tissues were collected.

BMF, CTGF expression = assay: RT-qPCR in MSTO-211H cells; assay type: cell-based
Method: Cells were seeded in 6‐well plates at a density of 1 million cells per well. The following day, different concentrations of compounds were added, and cells were collected after 24 h. For wash‐out experiments, cells were pre‐treated with compounds at indicated concentrations for 6 h, then cells were washed three times with PBS, and an equal volume of complete medium without compounds was added and incubated for another 18 h.
RNA was isolated and purified from the samples using the EZ‐10 Rotary Column Total RNA Isolation Kit (Sangon Biotech, B615012). After measuring the RNA concentration, 200 ng of purified RNA was used for genomic DNA removal and reverse transcription to cDNA with the HiScript III 1st Strand cDNA Synthesis Kit (+DNA wiper) (Vazyme, R312‐02). The resulting cDNA was then prepared into a reaction mix according to the ChamQ SYBR qPCR Mix (Vazyme, #q711‐02). Real‐time PCR analysis was performed using a QuantStudio 6 Pro real‐time PCR system (Thermo Fisher Scientific). Relative gene expression was calculated using the 2‐∆∆CT method. The primers used in this study were provided in the Supporting Information (Table S1, Supporting Information)

[1] = 7-day toxicological study in MSTO-211H tumor-bearing mice; assay type: in vivo; details: 10 or 30 mg/kg i.p. daily, 7 days
Method: A toxicological evaluation was conducted using an MSTO‐211H xenograft mouse model. All animal studies were carried out in accordance with protocols approved by the Institutional Animal Care and Use Committees of Tongji University and the Chinese Academy of Sciences, and in compliance with national, institutional and local regulations. These experiments were conducted in specific‐pathogen‐free (SPF) and Helicobacter‐free facilities at both institutions. After 7 consecutive days of drug administration (10 mg kg^−1 or 30 mg kg^−1, i.p., q.d.), whole blood and major organs—including the heart, liver, spleen, lungs, and kidneys—were collected for analysis. Blood samples were anticoagulated with EDTA (1.5 mg mL^−1), gently mixed, and subjected to standard hematological assessment. Tissue samples were processed for both paraffin‐embedded and frozen section analysis. Paraffin embedding involved fixation, graded dehydration, clearing, embedding, sectioning at 4 µm, and dewaxing to water. Frozen sections were prepared by embedding tissues in OCT compound, sectioning at −20 °C with a thickness of 8 µm, followed by acetone fixation and rinsing with PBS. […] Microscopic examinations and image acquisition were carried out, and quantitative analyses were performed using specialized image analysis software. […]

NCI-H226 cells = assay: Cell viability assay (CTG, 72 h) NCI-H226; assay type: cell-based; details: Homo sapiens, NCI-H226, 72 h; 3-day antiproliferation; read-out: IC50 (nM ± SD), NCI-H226
Method: (§1) Cells were seeded at a density of 1000 cells per well in 96‐well flat‐bottomed cell culture plates and cultured overnight at 37 °C with 5% CO2 to allow for cell attachment. The following day, different concentrations of compounds were added using an I‐DOT dispenser. After 72 h, 25 µL of CellTiter‐Meiluncell Luminescent Cell Viability Reagent (Meilunbio, #PWL111‐2) was added and incubated for 15 min at room temperature. Luminescence signals were then measured using an Envision plate reader (Revvity). Data were analyzed using GraphPad Prism 9.5 software.^[ [30] ^]

ES2 cells = assay: Cell viability assay (CTG, 72 h) ES2; assay type: cell-based; details: Homo sapiens, ES-2, 72 h, 3-day compound treatment
Method: as §1

T1 sequence (Q96SW2 whole entry): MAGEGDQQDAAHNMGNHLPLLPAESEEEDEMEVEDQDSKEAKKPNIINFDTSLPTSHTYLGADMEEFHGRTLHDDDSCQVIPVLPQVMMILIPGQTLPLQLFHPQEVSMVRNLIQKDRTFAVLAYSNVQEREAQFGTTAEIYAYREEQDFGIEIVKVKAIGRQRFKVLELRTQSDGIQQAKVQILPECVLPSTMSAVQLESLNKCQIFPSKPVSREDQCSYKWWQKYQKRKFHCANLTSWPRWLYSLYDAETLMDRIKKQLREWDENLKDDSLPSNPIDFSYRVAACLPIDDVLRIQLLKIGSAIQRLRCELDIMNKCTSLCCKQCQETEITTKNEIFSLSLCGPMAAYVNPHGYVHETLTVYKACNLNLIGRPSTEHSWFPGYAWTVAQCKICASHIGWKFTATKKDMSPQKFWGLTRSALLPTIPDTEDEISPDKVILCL

CNC(=O)c1cc2c(c(F)c1-c1c(Cl)c(F)cc3c1C[C@@](CN[C@H]1CC[C@H](C(=O)N4CCC(CC5CCN(C(=O)COc6ccc(N7CCC(=O)NC7=O)c(C)c6)CC5)CC4)CC1)(c1ccccc1)O3)[C@@H](O)[C@@H](C)C2 [KG-FP-003]
IC50 (CRBN): 962 ± 86 nM | Tumor response in ES2 xenograft (ES2 xenograft): significant tumor regression | TEAD1 protein degradation in tumor (MSTO-211H xenograft): pronounced degradation of TEAD1 protein | Tumor growth inhibition versus vehicle (MSTO-211H xenograft): significant tumor growth inhibition | Expression of TEAD target gene CTGF (qPCR) (BMF, CTGF expression): downregulation | Expression of pro-apoptotic gene BMF (qPCR) (BMF, CTGF expression): dramatic upregulation | Hematological analyses [1]: no significant deviations from baseline | Histopathological examination of heart, liver, spleen, lungs, kidneys [1]: no structural abnormalities or pathological lesions | IC50 (NCI-H226 cells): 27 ± 7 nM | IC50 (ES2 cells): 202 ± 14 nM
